Test results reported in US20110230419A1, “IAP BINDING COMPOUNDS” (Nuevolution A/S, priority 2008, published 2011).
Where a SMILES comes first, the peptide text is derived from it. [ ]: non-standard residue; d: D form. Pro(cis-4-Ph) = O=C(O)[C@@H]1C[C@H](c2ccccc2)CN1; Phe(3-CN) = N#Cc1cccc(C[C@H](N)C(=O)O)c1; Ala(2-furyl) = N[C@@H](Cc1ccco1)C(=O)O; Abu = CC[C@H](N)C(=O)O

Columns and labels:
[1] = target: T1, XIAP BIR3 (Homo sapiens, UniProt P98170); assay: Biotinylated BIR3 XIAP domain Alphascreen assay; set-up: biotinylated XIAP BIR3; biotin (biotinylated); conditions: biotinylated XIAP BIR3, FITC-labeled IAP-binding molecule, Streptavidin Donor / Anti-FITC Acceptor Beads, incubation 2 hours; concentration reducing alphascreen signal to half of maximum
Experimental: Biotinylated BIR3 XIAP Domain Alphascreen Assay Compounds were incubated with Streptavidin Donor Beads, Anti-FITC Acceptor Beads, biotinylated XIAP BIR3 and a FITC-labeled IAP-binding molecule. Following incubation for 2 hours the wells were read in an Envision reader. IC50s correspond to the concentration of compound which reduces the alphascreen signal to half of the maximum.
Target sequence in this assay (P98170 241-356 limits assumed): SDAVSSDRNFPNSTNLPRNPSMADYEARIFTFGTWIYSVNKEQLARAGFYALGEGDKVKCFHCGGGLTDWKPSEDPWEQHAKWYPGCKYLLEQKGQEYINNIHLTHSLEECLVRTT

[2] = target: T1, XIAP BIR3; assay: HIS-tagged BIR3 XIAP domain Alphascreen assay; set-up: HIS-tagged XIAP BIR3 (RnD systems); purchased RnD systems; conditions: HIS-tagged XIAP BIR3 (RnD systems), biotin-labeled IAP-binding molecule, Streptavidin Donor / Ni-NTA Acceptor Beads, incubation 2 hours; concentration reducing alphascreen signal to half of maximum
Experimental: HIS-Tagged BIR3 XIAP Domain Alphascreen Assay
Compounds were incubated with Streptavidin Donor Beads, Ni-NTA Acceptor Beads, HIS-tagged XIAP BIR3 (RnD systems) and a biotin-labeled IAP-binding molecule. Following incubation for 2 hours the wells were read in an Envision reader. IC50s correspond to the concentration of compound which reduces the alphascreen signal to half of the maximum.
Target sequence in this assay (P98170 252-356 limits assumed): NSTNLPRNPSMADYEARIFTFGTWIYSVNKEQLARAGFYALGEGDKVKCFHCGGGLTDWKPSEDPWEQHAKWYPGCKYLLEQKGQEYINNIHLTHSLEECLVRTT

| Structure (SMILES) | IC50 [1] | IC50 [2] |
| --- | --- | --- |
| CC[C@H](NC(=O)[C@H](C)N)C(=O)N1C[C@@H](c2ccccc2)C[C@H]1C(=O)N1C[C@@H](c2ccccc2)C[C@H]1C(=O)NC [Example 16, (2S,4R)-1-((3R,5S)-1-((S)-2-((S)-2-aminopropanamido)butanoyl)-3-phenylpyrrolidine-5-carbonyl)-N-methyl-4-phenylpyrrolidine-2-carboxamide] (H-A[Abu][Pro(cis-4-Ph)][Pro(cis-4-Ph)]-NHMe) | 0.1 to 100 nM |  |
| C[C@H](N)C(=O)N[C@@H](Cc1cccc(C(N)=O)c1)C(=O)N1CC(c2ccccc2)C1C(=O)N[C@@H]1CCc2ccccc21 (stereo partly drawn) [Example 18, 1-((S)-2-((S)-2-aminopropanamido)-3-(3-carbamoylphenyl)propanoyl)-N—((R)-2,3-dihydro-1H-inden-1-yl)-3-phenylazetidine-2-carboxamide] | 0.1 to 100 nM |  |
| C[C@@H](N)C(=O)N[C@@H](Cc1ccc(C(N)=O)cc1)C(=O)N1C[C@@H](c2ccccc2)C[C@H]1C(=O)N[C@@H]1CCc2ccccc21 [Example 17, (2S,4R)-1-((S)-2-((R)-2-aminopropanamido)-3-(4-carbamoylphenyl)propanoyl)-N—((R)-2,3-dihydro-1H-inden-1-yl)-4-phenylpyrrolidine-2-carboxamide] | 0.1 to 100 nM |  |
| CC(N)c1ccc(C(=O)N2C[C@@H](c3ccccc3)C[C@H]2C(=O)N2CC[C@H](c3ccccc3)C2)o1 (stereo partly drawn) [Example 5, [5-(1-Amino-ethyl)-furan-2-yl]-[(2S,4R)-4-phenyl-2-((R)-3-phenyl-pyrrolidine-1-carbonyl)-pyrrolidin-1-yl]-methanone] | 0.1 to 100 nM |  |
| CC(N)c1cccc(C(=O)N2C[C@@H](c3ccccc3)C[C@H]2C(=O)N2CC[C@H](c3ccccc3)C2)c1 (stereo partly drawn) [Example 6, [3-(1-Amino-ethyl)-phenyl]-[(2S,4R)-4-phenyl-2-((R)-3-phenyl-pyrrolidine-1-carbonyl)-pyrrolidin-1-yl]-methanone] | 100 to 1000 nM |  |
| C[C@H](N)C(=O)N[C@@H](Cc1cccc(C(N)=O)c1)C(=O)N1CC(C(=O)NC2CCc3ccccc32)C1c1ccccc1 (stereo in doubt) [Example 24, 1-((S)-2-((S)-2-aminopropanamido)-3-(3-carbamoylphenyl)propanoyl)-N—((R)-2,3-dihydro-1H-inden-1-yl)-2-phenylazetidine-3-carboxamide] | 0.1 to 100 nM |  |
| CNC(C)c1ccc(C(=O)N2C[C@@H](c3ccccc3)C[C@H]2C(=O)N2CC[C@H](c3ccccc3)C2)o1 (stereo partly drawn) [Example 1, [5-(1-Methylamino-ethyl)-furan-2-yl]-[(2S,4R)-4-phenyl-2-((R)-3-phenyl-pyrrolidine-1-carbonyl)-pyrrolidin-1-yl]-methanone] |  | 0.1 to 100 nM |
| C[C@@H](N)C(=O)N[C@@H](Cc1cccc(C(N)=O)c1)C(=O)N1C[C@@H](c2ccccc2)C[C@H]1C(=O)N[C@@H]1CCc2ccccc21 [Example 23, (2S,4R)-1-((S)-2-((R)-2-aminopropanamido)-3-(3-carbamoylphenyl)propanoyl)-N—((R)-2,3-dihydro-1H-inden-1-yl)-4-phenylpyrrolidine-2-carboxamide] | 0.1 to 100 nM |  |
| CNC(=O)[C@@H]1C[C@H](c2ccccc2)CN1C(=O)[C@@H]1C[C@H](c2ccccc2)CN1C(=O)[C@H](Cc1ccco1)NC(=O)[C@H](C)N [Example 15] (H-A[Ala(2-furyl)][Pro(cis-4-Ph)][Pro(cis-4-Ph)]-NHMe) | 0.1 to 100 nM |  |
| CNC(=O)[C@@H]1C[C@H](c2ccccc2)CN1C(=O)[C@@H]1C[C@H](c2ccccc2)CN1C(=O)[C@H](Cc1cccc(C#N)c1)NC(=O)[C@H](C)N [Example 20, (2S,4R)-1-((3R,5S)-1-((S)-2-((S)-2-aminopropanamido)-3-(3-cyanophenyl)propanoyl)-3-phenylpyrrolidine-5-carbonyl)-N-methyl-4-phenylpyrrolidine-2-carboxamide] (H-A[Phe(3-CN)][Pro(cis-4-Ph)][Pro(cis-4-Ph)]-NHMe) | 0.1 to 100 nM |  |
| O=C(N[C@@H]1CCc2ccccc21)[C@@H]1C[C@@H](C2CCCCC2)CN1C(=O)C1CC2(CCNCC2)CN1 (stereo partly drawn) [Example 13, (2S,4S)-4-Cyclohexyl-1-(2,8-diaza-spiro[4.5]decane-3-carbonyl)-pyrrolidine-2-carboxylic acid (R)-indan-1-ylamide] |  | 100 to 1000 nM |
| CC[C@H](NC)C(=O)N[C@@H](Cc1cccc(C#N)c1)C(=O)N1C[C@@H](c2ccccc2)C[C@H]1CN1CC[C@H](c2ccccc2)C1 [Example 22, (S)—N—((S)-3-(3-cyanophenyl)-1-oxo-1-((2S,4R)-4-phenyl-2-(((R)-3-phenylpyrrolidin-1-yl)methyl)pyrrolidin-1-yl)propan-2-yl)-2-(methylamino)butanamide] | 0.1 to 100 nM |  |
| O=C(N[C@H](C(=O)N[C@@H]1CCc2ccccc21)C1CCCCC1)C1CC2(CCNCC2)CN1 (stereo partly drawn) [Example 14, 2,8-Diaza-spiro[4.5]decane-3-carboxylic acid [(S)-cyclohexyl-((R)-indan-1-ylcarbamoyl)-methyl]-amide] |  | 100 to 1000 nM |
| CNC(C)c1cccc(C(=O)N2C[C@@H](c3ccccc3)C[C@H]2C(=O)N2CC[C@H](c3ccccc3)C2)c1 (stereo partly drawn) [Example 3, [3-(1-Methylamino-ethyl)-phenyl]-[(2S,4R)-4-phenyl-2-((R)-3-phenyl-pyrrolidine-1-carbonyl)-pyrrolidin-1-yl]-methanone] |  | 100 to 1000 nM |
| CNC(C)c1ccc(C(=O)N2C[C@@H](c3ccc(F)cc3)C[C@H]2C(=O)N2CCC(c3ccc(F)cc3)C2)o1 (stereo partly drawn) [Example 9, {(2S,4R)-4-(4-Fluoro-phenyl)-2-[3-(4-fluoro-phenyl)-pyrrolidine-1-carbonyl]-pyrrolidin-1-yl}-[5-(1-methylamino-ethyl)-furan-2-yl]-methanone] |  | 0.1 to 100 nM |
| CNC(C)c1cccc(C(=O)N2C[C@@H](c3ccccc3)C[C@H]2CN2CC[C@H](c3ccccc3)C2)c1 (stereo partly drawn) [Example 11, (3-(1-(methylamino)ethyl)phenyl)((2S,4R)-4-phenyl-2-(((R)-3-phenylpyrrolidin-1-yl)methyl)pyrrolidin-1-yl)methanone] |  | 100 to 1000 nM |
| C[C@@H](N)C1CCCC(C(=O)N2C[C@@H](c3ccccc3)C[C@H]2C(=O)N2CC[C@H](c3ccccc3)C2)N1 (stereo partly drawn) [Example 7, [6-((R)-1-Amino-ethyl)-piperidin-2-yl]-[(2S,4R)-4-phenyl-2-((R)-3-phenyl-pyrrolidine-1-carbonyl)-pyrrolidin-1-yl]-methanone] | > 1000 nM |  |
| CC(N)c1ccc(C(=O)N2C[C@@H](c3ccccc3)C[C@H]2CN2CC[C@H](c3ccccc3)C2)o1 (stereo partly drawn) [Example 2, (5-(1-Aminoethyl)furan-2-yl)((2S,4R)-4-phenyl-2-(((R)-3-phenylpyrrolidin-1-yl)methyl)pyrrolidin-1-yl)methanone] | 100 to 1000 nM |  |
| C[C@H](N)C1CCCC(C(=O)N2C[C@@H](c3ccccc3)C[C@H]2C(=O)N2CC[C@H](c3ccccc3)C2)N1 (stereo partly drawn) [Example 8, [6-((S)-1-Amino-ethyl)-piperidin-2-yl]-[(2S,4R)-4-phenyl-2-((R)-3-phenyl-pyrrolidine-1-carbonyl)-pyrrolidin-1-yl]-methanone] | 100 to 1000 nM |  |
| CNC(C)c1ccc(C(=O)N2C[C@@H](c3ccccc3)C[C@H]2CN2CC[C@H](c3ccccc3)C2)o1 (stereo partly drawn) [Example 10, (5-(1-(methylamino)ethyl)furan-2-yl)((2S,4R)-4-phenyl-2-(((R)-3-phenylpyrrolidin-1-yl)methyl)pyrrolidin-1-yl)methanone] |  | 100 to 1000 nM |
| CNC(=O)[C@@H]1C[C@H](c2ccccc2)CN1C(=O)[C@@H]1C[C@H](c2ccccc2)CN1C(=O)C(Cn1cncn1)NC(=O)[C@H](C)N (stereo partly drawn) [Example 21, (2S,4R)-1-((3R,5S)-1-(2-((S)-2-aminopropanamido)-3-(1H-1,2,4-triazol-1-yl)propanoyl)-3-phenylpyrrolidine-5-carbonyl)-N-methyl-4-phenylpyrrolidine-2-carboxamide] | 0.1 to 100 nM |  |
| C[C@H](N)C(=O)N[C@@H](Cc1cccc(C#N)c1)C(=O)N1C[C@@H](c2ccccc2)C[C@H]1C(=O)N[C@@H]1CCc2ccccc21 [Example 19, (2S,4R)-1-((S)-2-((S)-2-aminopropanamido)-3-(3-cyanophenyl)propanoyl)-N—((R)-2,3-dihydro-1H-inden-1-yl)-4-phenylpyrrolidine-2-carboxamide] | 0.1 to 100 nM |  |
